Assay results from ChEMBL document CHEMBL1136413, “Caged RNase: photoactivation of the enzyme from perfect off-state by site-specific incorporation of 2-nitrobenzyl moiety” (Bioorg Med Chem Lett, 2003).
Non-standard residues stand in square brackets, D forms with d. Residues, ends and D or L forms follow the SMILES beside them. *: point of attachment. X2 = COC(=O)C(N*)c1ccccc1[N+](=O)[O-]; X3 = O=C(OCc1ccccc1[N+](=O)[O-])*; X1 = O=[N+]([O-])c1ccccc1CO*; Nle = CCCC[C@H](N)C(=O)O

How the values were obtained:
[1] = Perfect off-state by site-specific incorporation of o-nitrobenzyl (o-NB) unit into RNase S' was determined after photolysis at 10 x E5 M/min
[2] = Perfect off-state by site-specific incorporation of o-nitrobenzyl (o-NB) unit into RNase S' was determined before photolysis at 10 x E5 M/min
[3] = Michaelis-Menten parameter value for the incorporation of photo-labile caged moiety into a proximity to the active site
[4] = Michaelis-Menten parameter(Kcat) value for the incorporation of photo-labile caged moiety into a proximity to the active site
[5] = Michaelis-Menten parameter(Km) value for the incorporation of photo-labile caged moiety into a proximity to the active site

Structure (SMILES)	RNase S' enzyme activity [1]	Photolysis [2]	k cat [3]	k cat [4]	Km [5]
CCCC[C@H](NC(=O)[C@H](Cc1c[nH]cn1)NC(=O)[C@H](CCC(N)=O)NC(=O)[C@H](CCCN=C(N)N)NC(=O)[C@H](CCC(=O)O)NC(=O)[C@H](Cc1ccccc1)NC(=O)[C@H](CCCCN)NC(=O)[C@H](C)NC(=O)[C@H](C)NC(=O)[C@H](C)NC(=O)[C@@H](NC(=O)[C@H](CCC(=O)OCc1ccccc1[N+](=O)[O-])NC(=O)[C@@H](N)CCCCN)[C@@H](C)O)C(=O)N[C@@H](CC(=O)O)C(=O)N[C@@H](CO)C(=O)O (H-KE(X1)TAAAKFERQH[Nle]DS-OH)	0.81	0.96			
CCCC[C@H](NC(=O)[C@H](Cc1c[nH]cn1)NC(=O)[C@H](CCC(N)=O)NC(=O)[C@H](CCCN=C(N)N)NC(=O)[C@H](CCC(=O)O)NC(=O)[C@H](Cc1ccccc1)NC(=O)[C@H](CCCCN)NC(=O)[C@H](C)NC(=O)[C@H](C)NC(=O)[C@H](C)NC(=O)[C@@H](NC(=O)[C@H](CCC(=O)O)NC(=O)[C@@H](N)CCCCN)[C@@H](C)O)C(=O)N[C@@H](CC(=O)O)C(=O)N[C@@H](CO)C(=O)O (H-KETAAAKFERQH[Nle]DS-OH)		1.02	0.0678 s⁻¹		
CCCC[C@H](NC(=O)[C@H](Cc1c[nH]cn1)NC(=O)[C@H](CCC(N)=O)NC(=O)[C@H](CCCN=C(N)N)NC(=O)[C@H](CCC(=O)O)NC(=O)[C@H](Cc1ccccc1)NC(=O)[C@H](CCCCN)NC(=O)[C@H](C)NC(=O)[C@H](C)NC(=O)[C@H](C)NC(=O)[C@@H](NC(=O)[C@H](CCC(=O)O)NC(=O)[C@@H](N)CCCCN)[C@@H](C)O)C(=O)N[C@@H](CC(=O)OCc1ccccc1[N+](=O)[O-])C(=O)N[C@@H](CO)C(=O)O (H-KETAAAKFERQH[Nle]D(X1)S-OH)	0.78	0.29		0.054 s⁻¹	1130 µM
CCCC[C@H](NC(=O)[C@H](Cc1c[nH]cn1)NC(=O)[C@H](CCC(=O)NC(C(=O)OC)c1ccccc1[N+](=O)[O-])NC(=O)[C@H](CCCN=C(N)N)NC(=O)[C@H](CCC(=O)O)NC(=O)[C@H](Cc1ccccc1)NC(=O)[C@H](CCCCN)NC(=O)[C@H](C)NC(=O)[C@H](C)NC(=O)[C@H](C)NC(=O)[C@@H](NC(=O)[C@H](CCC(=O)O)NC(=O)[C@@H](N)CCCCN)[C@@H](C)O)C(=O)N[C@@H](CC(=O)O)C(=O)N[C@@H](CO)C(=O)O (stereo partly specified) (H-KETAAAKFERE(X2)H[Nle]DS-OH)	0.37	0			

Continued, values first:

RNase S' enzyme activity [1]	Photolysis [2]	k cat [3]	k cat [4]	Km [5]	Structure (SMILES)
1.04	1.1				CCCC[C@H](NC(=O)[C@H](Cc1c[nH]cn1)NC(=O)[C@H](CCC(N)=O)NC(=O)[C@H](CCCN=C(N)N)NC(=O)[C@H](CCC(=O)O)NC(=O)[C@H](Cc1ccccc1)NC(=O)[C@H](CCCCNC(=O)OCc1ccccc1[N+](=O)[O-])NC(=O)[C@H](C)NC(=O)[C@H](C)NC(=O)[C@H](C)NC(=O)[C@@H](NC(=O)[C@H](CCC(=O)O)NC(=O)[C@@H](N)CCCCN)[C@@H](C)O)C(=O)N[C@@H](CC(=O)O)C(=O)N[C@@H](CO)C(=O)O (H-KETAAAK(X3)FERQH[Nle]DS-OH)
1.04	1.01				CCCC[C@H](NC(=O)[C@H](Cc1c[nH]cn1)NC(=O)[C@H](CCC(N)=O)NC(=O)[C@H](CCCN=C(N)N)NC(=O)[C@H](CCC(=O)O)NC(=O)[C@H](Cc1ccccc1)NC(=O)[C@H](CCCCN)NC(=O)[C@H](C)NC(=O)[C@H](C)NC(=O)[C@H](C)NC(=O)[C@@H](NC(=O)[C@H](CCC(=O)O)NC(=O)[C@@H](N)CCCCNC(=O)OCc1ccccc1[N+](=O)[O-])[C@@H](C)O)C(=O)N[C@@H](CC(=O)O)C(=O)N[C@@H](CO)C(=O)O (H-K(X3)ETAAAKFERQH[Nle]DS-OH)
0.97	0.99				CCCC[C@H](NC(=O)[C@H](Cc1c[nH]cn1)NC(=O)[C@H](CCC(N)=O)NC(=O)[C@H](CCCN=C(N)N)NC(=O)[C@H](CCC(=O)OCc1ccccc1[N+](=O)[O-])NC(=O)[C@H](Cc1ccccc1)NC(=O)[C@H](CCCCN)NC(=O)[C@H](C)NC(=O)[C@H](C)NC(=O)[C@H](C)NC(=O)[C@@H](NC(=O)[C@H](CCC(=O)O)NC(=O)[C@@H](N)CCCCN)[C@@H](C)O)C(=O)N[C@@H](CC(=O)O)C(=O)N[C@@H](CO)C(=O)O (H-KETAAAKFE(X1)RQH[Nle]DS-OH)
